Among the test systems are CCRF-CEM; EKVX; HCC 2998; HL-60; HOP-62; HT-29; IGROV-1; M14; MDA-MB-231; MOLT-4; NCI-H23; NCI-H522; NCI/ADR-RES; OVCAR-8; SF-268; SF-539; SNB-75; T47D; TK-10; UACC-257.
What all share (assay): NCI anticancer screen, dose series, 48 h

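Tested at 5 concentrations; 48 h exposure; 96-well plates; endpoints linearly interpolated, else capped at highest concentration. Here, GI50 denotes the concentration required for 50% inhibition of growth.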 The source made the active and inactive calls. Rule as the data show it: active = GI50 up to about 1.1 µM and inactive = higher.

Consider `O=C(c1ccccc1)c1c(C(F)(F)F)[n+]([O-])c2ccccc2[n+]1[O-]`, for which the GI50 was 0.495 µM (active) in the experiment with CCRF-CEM; 2.17 µM (inactive) in the experiment on EKVX; 1.25 µM (inactive) in the experiment on HCC 2998; 0.205 µM (active) with HL-60; 1.08 µM (active) in the experiment with HOP-62; 0.687 µM (active) with HT-29. The GI50 is 0.188 µM (active) with IGROV-1; 2.58 µM (inactive) in the experiment with M14; 1.42 µM (inactive) in the experiment on MDA-MB-231; 0.129 µM (active) in the experiment on MOLT-4; 1.43 µM (inactive) with NCI-H23; 0.459 µM (active) in the experiment with NCI-H522. Moreover, the GI50 in the experiment with NCI/ADR-RES was 0.469 µM (active); in the experiment with OVCAR-8, 0.543 µM (active); in the experiment on SF-268 it was 0.995 µM (active); with SF-539, 1.83 µM (inactive); in the experiment with SNB-75 it was 1.26 µM (inactive); in the experiment on T47D, 0.396 µM (active). In addition, the GI50 is 1.64 µM (inactive) in the experiment on TK-10 and 1.84 µM (inactive) with UACC-257.

Values taken from ChEMBL document CHEMBL1201862, “PubChem BioAssay data set” (2004).
